In brackets after ≈: the same amount, converted by molar mass. Activity calls are given as the source filed them. The calls are words filed in the database; no cut-off is given here.
Legend:
Staphylococcus aureus [1] = assay: Antibacterial activity against Staphylococcus aureus ATCC 29213 assessed as bacterial growth inhibition measured after 18 hrs by CLSI protocol based two-fold serial microdilution method; format: functional
Staphylococcus aureus [2] = assay: Antibacterial activity against Staphylococcus aureus ATCC 6358 assessed as bacterial growth inhibition measured after 18 hrs by CLSI protocol based two-fold serial microdilution method; format: functional
Staphylococcus aureus [3] = assay: Antibacterial activity against methicillin-resistant Staphylococcus aureus isolate 620 assessed as bacterial growth inhibition measured after 18 hrs by CLSI protocol based two-fold serial microdilution method; format: functional; conditions: isolate 620, 18 h
Staphylococcus aureus [4] = assay: Antibacterial activity against methicillin-resistant Staphylococcus aureus isolate 612 assessed as bacterial growth inhibition measured after 18 hrs by CLSI protocol based two-fold serial microdilution method; format: functional; conditions: isolate 612, 18 h
[5] = tested on: Staphylococcus epidermidis; assay: Antibacterial activity against Staphylococcus epidermidis ATCC 35984 assessed as bacterial growth inhibition measured after 18 hrs by CLSI protocol based two-fold serial microdilution method; format: functional
Staphylococcus aureus [6] = assay: Antibacterial activity against methicillin-resistant Staphylococcus aureus isolate 584 assessed as bacterial growth inhibition measured after 18 hrs by CLSI protocol based two-fold serial microdilution method; format: functional; conditions: isolate 584, 18 h
[7] = tested on: Staphylococcus epidermidis; assay: Inhibition of biofilm formation in Staphylococcus epidermidis ATCC 12228 at 1 to 8 ug/ml measured after 24 hrs by crystal violet staining based assay; format: functional, organism-based
[8] = tested on: Staphylococcus epidermidis; assay: Inhibition of biofilm formation in Staphylococcus epidermidis ATCC 35984 at 1 to 8 ug/ml measured after 24 hrs by crystal violet staining based assay; format: functional, organism-based
[9] = tested on: Staphylococcus epidermidis; assay: Antibacterial activity against methicillin-resistant Staphylococcus epidermidis isolate 660 assessed as bacterial growth inhibition measured after 18 hrs by CLSI protocol based two-fold serial microdilution method; format: functional; conditions: isolate 660, 18 h
Micrococcus luteus = assay: Antibacterial activity against Micrococcus luteus ATCC 9341 assessed as bacterial growth inhibition measured after 18 hrs by CLSI protocol based two-fold serial microdilution method; format: functional
Staphylococcus aureus [10] = assay: Antibacterial activity against Staphylococcus aureus NCTC 4163 assessed as bacterial growth inhibition measured after 18 hrs by CLSI protocol based two-fold serial microdilution method; format: functional
Staphylococcus aureus [11] = assay: Antibacterial activity against methicillin-resistant Staphylococcus aureus isolate 583 assessed as bacterial growth inhibition measured after 18 hrs by CLSI protocol based two-fold serial microdilution method; format: functional; conditions: isolate 583, 18 h
Enterococcus hirae = assay: Antibacterial activity against Enterococcus hirae ATCC 10541 assessed as bacterial growth inhibition measured after 18 hrs by CLSI protocol based two-fold serial microdilution method; format: functional
Escherichia coli [12] = assay: Antibacterial activity against Escherichia coli ATCC 25922 assessed as bacterial growth inhibition measured after 18 hrs by CLSI protocol based two-fold serial microdilution method; format: functional, organism-based
[13] = tested on: Staphylococcus epidermidis; assay: Antibacterial activity against methicillin-resistant Staphylococcus epidermidis isolate 654 assessed as bacterial growth inhibition measured after 18 hrs by CLSI protocol based two-fold serial microdilution method; format: functional; conditions: isolate 654, 18 h
Escherichia coli [14] = assay: Antibacterial activity against Escherichia coli NCTC 8196 assessed as bacterial growth inhibition measured after 18 hrs by CLSI protocol based two-fold serial microdilution method; format: functional, organism-based
[15] = Genotoxicity in rec negative Bacillus subtilis M45 assessed as diameter of inhibition zone at 256 ug measured after 24 hrs by rec-assay; format: toxicity; conditions: in vivo
Staphylococcus aureus [16] = assay: Antibacterial activity against Staphylococcus aureus ATCC 25923 assessed as bacterial growth inhibition measured after 18 hrs by CLSI protocol based two-fold serial microdilution method; format: functional
[17] = tested on: Staphylococcus epidermidis; assay: Antibacterial activity against Staphylococcus epidermidis ATCC 12228 assessed as bacterial growth inhibition measured after 18 hrs by CLSI protocol based two-fold serial microdilution method; format: functional
[18] = Genotoxicity in rec-positive Bacillus subtilis H17 assessed as diameter of inhibition zone at 256 ug measured after 24 hrs by rec-assay; format: toxicity; conditions: in vivo
[19] = tested on: Staphylococcus epidermidis; assay: Antibacterial activity against methicillin-resistant Staphylococcus epidermidis isolate 609 assessed as bacterial growth inhibition measured after 18 hrs by CLSI protocol based two-fold serial microdilution method; format: functional; conditions: isolate 609, 18 h
[20] = tested on: Staphylococcus epidermidis; assay: Antibacterial activity against methicillin-resistant Staphylococcus epidermidis isolate 610 assessed as bacterial growth inhibition measured after 18 hrs by CLSI protocol based two-fold serial microdilution method; format: functional; conditions: isolate 610, 18 h
Staphylococcus aureus [21] = assay: Antibacterial activity against methicillin-resistant Staphylococcus aureus isolate 621 assessed as bacterial growth inhibition measured after 18 hrs by CLSI protocol based two-fold serial microdilution method; format: functional; conditions: isolate 621, 18 h
Pseudomonas aeruginosa [22] = assay: Antibacterial activity against Pseudomonas aeruginosa ATCC 27853 assessed as bacterial growth inhibition measured after 18 hrs by CLSI protocol based two-fold serial microdilution method; format: functional, organism-based
Staphylococcus aureus [23] = assay: Antibacterial activity against methicillin-resistant Staphylococcus aureus isolate 750 assessed as bacterial growth inhibition measured after 18 hrs by CLSI protocol based two-fold serial microdilution method; format: functional; conditions: isolate 750, 18 h
Staphylococcus aureus [24] = assay: Antibacterial activity against methicillin-resistant Staphylococcus aureus isolate 770 assessed as bacterial growth inhibition measured after 18 hrs by CLSI protocol based two-fold serial microdilution method; format: functional; conditions: isolate 770, 18 h
[25] = tested on: Staphylococcus epidermidis; assay: Antibacterial activity against methicillin-resistant Staphylococcus epidermidis isolate 603 assessed as bacterial growth inhibition measured after 18 hrs by CLSI protocol based two-fold serial microdilution method; format: functional; conditions: isolate 603, 18 h
[26] = tested on: Staphylococcus epidermidis; assay: Antibacterial activity against methicillin-resistant Staphylococcus epidermidis isolate 602 assessed as bacterial growth inhibition measured after 18 hrs by CLSI protocol based two-fold serial microdilution method; format: functional; conditions: isolate 602, 18 h
Pseudomonas aeruginosa [27] = assay: Antibacterial activity against Pseudomonas aeruginosa ATCC 15442 assessed as bacterial growth inhibition measured after 18 hrs by CLSI protocol based two-fold serial microdilution method; format: functional, organism-based
[28] = tested on: Staphylococcus epidermidis; assay: Antibacterial activity against methicillin-resistant Staphylococcus epidermidis isolate 574 assessed as bacterial growth inhibition measured after 18 hrs by CLSI protocol based two-fold serial microdilution method; format: functional; conditions: isolate 574, 18 h

Row | Structure (SMILES) | MIC (Staphylococcus aureus [3]) | MIC (Staphylococcus aureus [4]) | MIC (Staphylococcus aureus [6]) | inhibition [7] | inhibition [8] | MIC [9] | MIC (Staphylococcus aureus [11]) | Activity (Escherichia coli [12]) | MIC [13] | Activity (Escherichia coli [14]) | diameter of the inhibition zone (DIZ) [15] | diameter of the inhibition zone (DIZ) [18] | MIC [19] | MIC [20] | MIC (Staphylococcus aureus [21]) | Activity (Pseudomonas aeruginosa [22]) | MIC (Staphylococcus aureus [23]) | MIC (Staphylococcus aureus [24]) | MIC [25] | MIC [26] | further results
1 | CC[C@@H](C(=O)[C@@H](C)[C@@H](O)[C@H](C)[C@@H]1O[C@@H]([C@@H](CC)C(=O)ONC(=O)c2ccccc2O)CC[C@@H]1C)[C@H]1O[C@]2(C=C[C@@H](O)[C@]3(CC[C@@](C)([C@H]4CC[C@](O)(CC)[C@H](C)O4)O3)O2)[C@H](C)C[C@@H]1C | 2.26 µM (≈ 2 µg/mL) | 2.26 µM (≈ 2 µg/mL) | 4.51 µM (≈ 4 µg/mL) | Active | Active | 4.51 µM (≈ 4 µg/mL) | 2.26 µM (≈ 2 µg/mL) | inactive | 4.51 µM (≈ 4 µg/mL) | inactive | 30 mm | 24 mm | 2.26 µM (≈ 2 µg/mL) | 2.26 µM (≈ 2 µg/mL) | 2.26 µM (≈ 2 µg/mL) | inactive | 2.26 µM (≈ 2 µg/mL) | 4.51 µM (≈ 4 µg/mL) | 2.26 µM (≈ 2 µg/mL) | 2.26 µM (≈ 2 µg/mL) | MIC (Staphylococcus aureus [1]; ATCC 29213, 18 h): 1 to 16 mg/L (≈ 1.13 to 18.1 µM); MIC (Staphylococcus aureus [2]; ATCC 6358, 18 h): 1 to 16 mg/L (≈ 1.13 to 18.1 µM); MIC ([5]; ATCC 35984, 18 h): 1 to 16 mg/L (≈ 1.13 to 18.1 µM); MIC (Micrococcus luteus; ATCC 9341, 18 h): 1 to 16 mg/L (≈ 1.13 to 18.1 µM); MIC (Staphylococcus aureus [10]; NCTC 4163, 18 h): 1 to 16 mg/L (≈ 1.13 to 18.1 µM); MIC (Enterococcus hirae; ATCC 10541, 18 h): 1 to 16 mg/L (≈ 1.13 to 18.1 µM); MIC (Staphylococcus aureus [16]; ATCC 25923, 18 h): 1 to 16 mg/L (≈ 1.13 to 18.1 µM); MIC ([17]; ATCC 12228, 18 h): 1 to 16 mg/L (≈ 1.13 to 18.1 µM); Activity (Pseudomonas aeruginosa [27]): inactive; MIC [28]: 1.13 µM (≈ 1 µg/mL)
2 | CC[C@@H](C(=O)[C@@H](C)[C@@H](O)[C@H](C)[C@@H]1O[C@@H]([C@@H](CC)C(=O)ONC(=O)c2ccccc2O)CC[C@@H]1C)[C@H]1O[C@]2(C=CC(=O)[C@]3(CC[C@@](C)([C@H]4CC[C@](O)(CC)[C@H](C)O4)O3)O2)[C@H](C)C[C@@H]1C | 4.52 µM (≈ 4 µg/mL) | 4.52 µM (≈ 4 µg/mL) | 72.4 µM (≈ 64 µg/mL) | Active | Active | 72.4 µM (≈ 64 µg/mL) | 36.2 µM (≈ 32 µg/mL) | inactive | 72.4 µM (≈ 64 µg/mL) | inactive | 19 mm | 17 mm | 2.26 µM (≈ 2 µg/mL) | 4.52 µM (≈ 4 µg/mL) | 4.52 µM (≈ 4 µg/mL) | inactive | 4.52 µM (≈ 4 µg/mL) | 72.4 µM (≈ 64 µg/mL) | 2.26 µM (≈ 2 µg/mL) | 4.52 µM (≈ 4 µg/mL) | Activity (Staphylococcus aureus [1]): Active; Activity (Staphylococcus aureus [2]): Active; Activity [5]: Active; Activity (Micrococcus luteus): Active; Activity (Staphylococcus aureus [10]): Active; Activity (Enterococcus hirae): Active; Activity (Staphylococcus aureus [16]): Active; Activity [17]: Active; Activity (Pseudomonas aeruginosa [27]): inactive; MIC [28]: 2.26 µM (≈ 2 µg/mL)
3 | CC[C@@H](C(=O)[C@@H](C)[C@@H](O)[C@H](C)[C@@H]1O[C@@H]([C@@H](CC)C(=O)NCCc2ccc(F)cc2)CC[C@@H]1C)[C@H]1O[C@]2(C=C[C@@H](O)[C@]3(CC[C@@](C)([C@H]4CC[C@](O)(CC)[C@H](C)O4)O3)O2)[C@H](C)C[C@@H]1C | 18.4 µM (≈ 16 µg/mL) | 36.7 µM (≈ 32 µg/mL) | 18.4 µM (≈ 16 µg/mL) | Active | Active | 36.7 µM (≈ 32 µg/mL) | 18.4 µM (≈ 16 µg/mL) | inactive | 36.7 µM (≈ 32 µg/mL) | inactive | 27 mm | 20 mm | 18.4 µM (≈ 16 µg/mL) | 36.7 µM (≈ 32 µg/mL) | 18.4 µM (≈ 16 µg/mL) | inactive | 18.4 µM (≈ 16 µg/mL) | 36.7 µM (≈ 32 µg/mL) | 18.4 µM (≈ 16 µg/mL) | 36.7 µM (≈ 32 µg/mL) | Activity (Pseudomonas aeruginosa [27]): inactive; MIC [28]: 18.4 µM (≈ 16 µg/mL)
4 | CC[C@@H](C(=O)[C@@H](C)[C@@H](O)[C@H](C)[C@@H]1O[C@@H]([C@@H](CC)C(=O)O)CC[C@@H]1C)[C@H]1O[C@]2(C=CC(=O)[C@]3(CC[C@@](C)([C@H]4CC[C@](O)(CC)[C@H](C)O4)O3)O2)[C@H](C)C[C@@H]1C | 2.67 µM (≈ 2 µg/mL) | 2.67 µM (≈ 2 µg/mL) | 2.67 µM (≈ 2 µg/mL) | Active | Active | 5.34 µM (≈ 4 µg/mL) | 2.67 µM (≈ 2 µg/mL) | inactive | 5.34 µM (≈ 4 µg/mL) | inactive | 34 mm | 32 mm | 2.67 µM (≈ 2 µg/mL) | 2.67 µM (≈ 2 µg/mL) | 2.67 µM (≈ 2 µg/mL) | inactive | 2.67 µM (≈ 2 µg/mL) | 2.67 µM (≈ 2 µg/mL) | 2.67 µM (≈ 2 µg/mL) | 2.67 µM (≈ 2 µg/mL) | Activity (Pseudomonas aeruginosa [27]): inactive; MIC [28]: 1.34 µM (≈ 1 µg/mL)

From ChEMBL document CHEMBL4627327, “Antibacterial activity of singly and doubly modified salinomycin derivatives” (Bioorg Med Chem Lett, 2020)
